Source: patent US11603377B2, “MTORC1 modulators and uses thereof” (Aeovian Pharmaceuticals, Inc., priority 2020, dated 2023)

Tests used:
mTORC1 = mTORC1 (Homo sapiens (Human), UniProt P42345+P62942); experiment: mTORC1 inhibition, AlphaLISA of Phospho-p70 S6 kinase (p70S6K pT389) in PC-3 cells; type: cell-based; details: inhibition of p70S6K pT389 levels
[1] = target: FKBP12 / FRB ternary complex (Homo sapiens (Human), UniProt P42345+P62942); experiment: SPR assay to characterize ternary complex formation with FKBP12 (FRB binding to rapalog-saturated FKBP12); details: FRB dilutions with 100 nM rapalog on immobilized FKBP12
Method: Example 30: SPR Assay to Characterize Ternary Complex Formation with FKBP12
(§1) Biotinylated avi-FKBP12 was immobilized on a streptavidin chip (Cytiva Series S SA) using a Biacore 8K or 8 k+ (Cytiva). To achieve an immobilization level of 100 RU, 0.3 μg/ml biotinylated avi-FKBP12 were injected for 80 sec at a flow rate of 10 μl/min. Serial dilution of FRB was prepared (12 concentrations, 3-fold dilutions, 0.00011-20 μM) and supplemented with 100 nM of rapalog. A-B-A injection mode was used to ensure saturation immobilized FKBP12 with respective rapalog. 100 nM solution of the respective rapalog was injected before FRB injection for 120 sec and during dissociation for 420 sec. The FRB dilutions were then injected 120 seconds contact time with increasing concentrations. […] 50 mM HEPES pH 7.5, 150 mM NaCl, 2 mM MgCl2, 1 mM DTT, 0.05% Tween-20, 1% DMSO was used as running buffer at a flow rate of 30 μl/min. The multi-cycle kinetics data were fit to a 1:1 binding model to measure the association rate ka (1/Ms), the dissociation rate kd (1/s) and the affinity Kd (M). In case of fast association and dissociation, steady state affinity analysis following the law of mass action was used to determine the affinity Kd (M).

mTORC2 = mTORC2 (Homo sapiens (Human), UniProt P42345+P62942); experiment: mTORC2 inhibition, AlphaLISA of Phospho-AKT (pAKT pS473) in PC3 cells; type: cell-based
Method: Example 32: mTORC1 Inhibition, mTORC2 Inhibition, Cell Lysis, AlphaLISA Experiments, and Data Analysis
mTORC2 inhibition was determined via analysis of phosphorylation level of Phospho-AKT (pAKT pS473) with the corresponding AlphaLISA kit (PerkinElmer, Alpha SF Ultra™ Multiplex p-AKT1/2/3(Ser473)/Total AKT1). PC3 cells were plated on 96 well plates in assay medium (DMEM: Ham's F12, basic (CLS Cell Lines Service GmbH, Cat #820400a), supplemented with additional 10% FBS at 1.20E+06 cells/mL and incubated over-night at 37° C., 5% CO2. On the following day, cells were treated with assay medium (10% FBS) containing increasing compound concentrations (12 points at 3-fold dilutions) and incubated for 6 hours at 37° C., 5% CO2. Thereafter, medium was aspirated and cells were rinsed with PBS. In the following, cells were treated with compound dilutions in starvation medium (DMEM: Ham's F12, basic; without FBS) for further 18 h at 37° C., 5% CO2. Then, immediately prior to cell lysis, cells were treated with 12% FBS for 15 min.
After performing experiments according to mTORC1 and mTORC2 protocols, cells were harvested in lysis buffer supplied with the AlphaLISA kits, additionally enriched with Roche cOmplete™ Protease Inhibitor Cocktail (Cat #CO-RO). Thus, cells were lysed using 50 μL of the lysis buffer and incubated for 60 min at 4° C. while shaking. After centrifugation at 4000 rpm for 5 min, experiments were performed according to the AlphaLISA manufacturer's protocol.
Ten microliters of cell lysates were mixed with the acceptor mix. After incubation for 2 h at room temperature, the donor mix was added. After additional incubation at room temperature for 2 hours, AlphaLISA signal was read on PHERAstar® FSX (BMG Labtech) with AlphaPLEX module.
EC50 values were calculated by ExcelFit standard algorithm.

FKBP12 = FKBP12 (Homo sapiens (Human), UniProt P62942); experiment: SPR assay to determine binding affinity to FKBP12 (direct binding); details: immobilized biotinylated avi-FKBP12
FKBP12, sequence (P62942 whole entry): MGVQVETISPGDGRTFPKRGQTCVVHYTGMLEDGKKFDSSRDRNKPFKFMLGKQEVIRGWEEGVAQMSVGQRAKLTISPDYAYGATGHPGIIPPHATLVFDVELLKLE
Method: SPR Assay to Determine Binding Affinity to FKBP12.
Biotinylated avi-FKBP12 was immobilized on a streptavidin chip (Cytiva Series S SA) using a Biacore 8K or 8 k+ (Cytiva). To achieve an immobilization level of 1000 RU, 2 μg/ml biotinylated avi-FKBP12 were injected for 100 sec at a flow rate of 10 μl/min. Rapalogs were diluted in DMSO to 100× working concentration. Each Rapalog was 100-fold diluted in 50 mM HEPES pH 7.5, 150 mM NaCl, 2 mM MgCl2, 1 mM DTT, 0.05% Tween-20 and a serial dilution prepared (9 concentrations, 3-fold dilutions, 0.08-500 nM). […] The compound dilutions were then injected at 100 uL/min for 120 seconds contact time in sequence with increasing concentrations. Dissociation was monitored for 3600 seconds. 50 mM HEPES pH 7.5, 150 mM NaCl, 2 mM MgCl2, 1 mM DTT, 0.05% Tween-20, 1% DMSO was used as running buffer. The single-cycle kinetics data were fit to a 1:1 binding model to measure the association rate ka (1/Ms), the dissociation rate kd (1/s) and the affinity Kd (M).

[2] = target: FKBP51 / FRB ternary complex (Homo sapiens (Human), UniProt P42345+Q13451); experiment: SPR assay to characterize ternary complex formation with FKBP51 (FRB binding to rapalog-saturated FKBP51); details: FRB dilutions with 100 nM rapalog on immobilized FKBP51
Method: Example 31: SPR Assay to Characterize Ternary Complex Formation with FKBP51
as §1, with “Biotinylated avi-FKBP51” for “Biotinylated avi-FKBP12”, “of 200” for “of 100”, “RU, 0.6” for “RU, 0.3”, “biotinylated avi-FKBP51” for “biotinylated avi-FKBP12”, “for 150” for “for 80”

FKBP51 = FKBP51 (Homo sapiens (Human), UniProt Q13451); experiment: SPR assay to determine binding affinity to FKBP51 (direct binding); details: immobilized biotinylated avi-FKBP51
FKBP51, sequence (Q13451 whole entry): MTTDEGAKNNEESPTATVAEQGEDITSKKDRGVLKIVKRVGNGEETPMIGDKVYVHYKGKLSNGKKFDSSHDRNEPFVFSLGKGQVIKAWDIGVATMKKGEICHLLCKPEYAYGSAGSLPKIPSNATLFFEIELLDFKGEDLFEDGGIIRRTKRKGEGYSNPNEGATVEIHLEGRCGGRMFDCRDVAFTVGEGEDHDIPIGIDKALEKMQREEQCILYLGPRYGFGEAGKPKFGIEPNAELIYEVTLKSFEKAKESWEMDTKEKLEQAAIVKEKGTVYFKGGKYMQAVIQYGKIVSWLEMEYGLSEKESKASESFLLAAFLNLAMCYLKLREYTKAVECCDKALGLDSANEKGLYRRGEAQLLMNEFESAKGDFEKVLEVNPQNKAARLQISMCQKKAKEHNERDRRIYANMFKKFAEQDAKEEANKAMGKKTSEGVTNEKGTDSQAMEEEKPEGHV
Method: Example 29: SPR Assay to Determine Binding Affinity to FKBP51
Biotinylated avi-FKBP51 was immobilized on a streptavidin chip (Cytiva Series S SA) using a Biacore 8K or 8 k+ (Cytiva). To achieve an immobilization level of 2000 RU, 3 μg/ml biotinylated avi-FKBP51 were injected for 360 sec at a flow rate of 10 μl/min. Rapalogs were diluted in DMSO to 100× working concentration. Each Rapalog was 100-fold diluted in 50 mM HEPES pH 7.5, 150 mM NaCl, 2 mM MgCl2, 1 mM DTT, 0.05% Tween-20 and a serial dilution prepared (8 concentrations, 3-fold dilutions, 0.5-1000 nM). […] The compound dilutions were then injected at 100 uL/min for 120 seconds contact time and with 3600 seconds dissociation time with increasing concentrations. 50 mM HEPES pH 7.5, 150 mM NaCl, 2 mM MgCl2, 1 mM DTT, 0.05% Tween-20, 1% DMSO was used as running buffer. Multi-cycle kinetics data were fit to a 1:1 binding model to measure the association rate ka (1/Ms), the dissociation rate kd (1/s) and the affinity Kd (M).

For CO[C@@H]1C[C@H](C[C@@H](C)[C@@H]2CC(=O)[C@H](C)/C=C(\C)[C@@H](O)[C@@H](OC)C(=O)[C@H](C)C[C@H](C)/C=C/C=C/C=C(\C)[C@@H](NS(=O)(=O)CC3CCCCC3)C[C@@H]3CC[C@@H](C)[C@@](O)(O3)C(=O)C(=O)N3CCCC[C@H]3C(=O)O2)CC[C@H]1O [Compound 20], the IC50 (mTORC1) was 0.1 to 0.8 nM, the Kd [1] was 300 to 800 nM and the “mTORC2 % inhibition at 1 uM” value (mTORC2) was “B (B>20% and less than 40% inhibition at 1 uM)”. The Kd (FKBP12) was less than 0.3 nM, the Kd [2] was greater than 800 nM and the Kd (FKBP51) was greater than 100 nM.

For COC1C(=O)C(C)CC/C=C/C=C/C=C(\C)[C@H](NS(=O)(=O)CCO)C[C@H]2CC[C@H](C)[C@](O)(O2)C(=O)C(=O)N(C)C(C)C(=O)OC([C@H](C)C[C@@H]2CC[C@@H](OC3CC3)[C@H](OC)C2)CC(=O)C(C)/C=C(\C)C1O (stereo partly drawn) [Compound 10], the IC50 (mTORC1) was 0.1 to 0.8 nM, the Kd [1] was 300 to 800 nM and the “mTORC2 % inhibition at 1 uM” value (mTORC2) was “A (A ≤20% inhibition at 1 micro Molar (uM))”. The Kd (FKBP12) was 0.3 to 1 nM, the Kd [2] was 300 to 800 nM and the Kd (FKBP51) was 10 to 100 nM.

CO[C@@H]1C[C@H](C[C@@H](C)[C@@H]2CC(=O)[C@H](C)/C=C(\C)[C@H](O)[C@@H](OC)C(=O)[C@H](C)C[C@H](C)/C=C/C=C/C=C(\C)[C@@H](OCCC3COC3)C[C@@H]3CC[C@@H](C)[C@@](O)(O3)C(=O)C(=O)N3CCCC[C@H]3C(=O)O2)CC[C@H]1O [Compound 55] was tested, and the IC50 (mTORC1) was 0.1 to 0.8 nM, the Kd [1] was 300 to 800 nM and the “mTORC2 % inhibition at 1 uM” value (mTORC2) was “B (B>20% and less than 40% inhibition at 1 uM)”. It also gave a Kd (FKBP12) of less than 0.3 nM, a Kd [2] greater than 800 nM and a Kd (FKBP51) greater than 100 nM.

For CCOC(=O)COC1CCC(CC(C)C2CC(=O)C(C)C=C(C)C(O)C(OC)C(=O)C(C)CC(C)C=CC=CC=C(C)C(OCC3CCC3)CC3CCC(C)C(O)(O3)C(=O)C(=O)N3CCCCC3C(=O)O2)CC1OC (stereo not drawn) [Compound 49], the IC50 (mTORC1) was greater than 0.8 nM, the Kd [1] was 300 to 800 nM and the “mTORC2 % inhibition at 1 uM” value (mTORC2) was “B (B>20% and less than 40% inhibition at 1 uM)”. For the same molecule, the Kd (FKBP12) was less than 0.3 nM, the Kd [2] was greater than 800 nM and the Kd (FKBP51) was greater than 100 nM.

For COC1CC(CC(C)C2CC(=O)C(C)C=C(C)C(O)C(OC)C(=O)C(C)CC(C)C=CC=CC=C(C)C(OCC3CCC3)CC3CCC(C)C(O)(O3)C(=O)C(=O)N3CCCCC3C(=O)O2)CCC1O (stereo not drawn) [Compound 36], the IC50 (mTORC1) was 0.1 to 0.8 nM, the Kd [1] was 300 to 800 nM and the “mTORC2 % inhibition at 1 uM” value (mTORC2) was “B (B>20% and less than 40% inhibition at 1 uM)”. For the same molecule, the Kd (FKBP12) was less than 0.3 nM, the Kd [2] was greater than 800 nM and the Kd (FKBP51) was greater than 100 nM.

CCOC(=O)COC1CCC(CC(C)C2CC(=O)C(C)C=C(C)C(O)C(OC)C(=O)C(C)CC(C)C=CC=CC=C(C)C(OCCOC)CC3CCC(C)C(O)(O3)C(=O)C(=O)N3CCCCC3C(=O)O2)CC1OC (stereo not drawn) [Compound 56] was tested, and the IC50 (mTORC1) was 0.1 to 0.8 nM, the Kd [1] was 300 to 800 nM and the “mTORC2 % inhibition at 1 uM” value (mTORC2) was “C (C≥40% and less than 60% inhibition at 1 uM)”. For the same molecule, the Kd (FKBP12) was less than 0.3 nM, the Kd [2] was greater than 800 nM and the Kd (FKBP51) was greater than 100 nM.

With COCCOCCS(=O)(=O)N[C@@H]1C[C@@H]2CC[C@@H](C)[C@@](O)(O2)C(=O)C(=O)N2CCCC[C@H]2C(=O)O[C@H]([C@H](C)C[C@@H]2CC[C@@H](O)[C@H](OC)C2)CC(=O)[C@H](C)/C=C(\C)[C@@H](O)[C@@H](OC)C(=O)[C@H](C)C[C@H](C)/C=C/C=C/C=C/1C [Compound 8] the IC50 (mTORC1) was 0.1 to 0.8 nM, the Kd [1] was 300 to 800 nM and the “mTORC2 % inhibition at 1 uM” value (mTORC2) was “B (B>20% and less than 40% inhibition at 1 uM)”. The Kd (FKBP12) was less than 0.3 nM, the Kd [2] was 300 to 800 nM and the Kd (FKBP51) was 10 to 100 nM.

For COC1CC(CC(C)C2CC(=O)C(C)C=C(C)C(O)C(OC)C(=O)C(C)CC(C)C=CC=CC=C(C)C(OC3CC3)CC3CCC(C)C(O)(O3)C(=O)C(=O)N3CCCCC3C(=O)O2)CCC1OCCCO (stereo not drawn) [Compound 52], the IC50 (mTORC1) was 0.1 to 0.8 nM, the Kd [1] was less than 300 nM and the “mTORC2 % inhibition at 1 uM” value (mTORC2) was “B (B>20% and less than 40% inhibition at 1 uM)”. For the same molecule, the Kd (FKBP12) was 0.3 to 1 nM, the Kd [2] was greater than 800 nM and the Kd (FKBP51) was greater than 100 nM.

In the case of COCCS(=O)(=O)NC1CC2CCC(C)C(O)(O2)C(=O)C(=O)N2CCCCC2C(=O)OC(C(C)CC2CCC(OCCCS(C)(=O)=O)C(OC)C2)CC(=O)C(C)C=C(C)C(O)C(OC)C(=O)C(C)CC(C)C=CC=CC=C1C (mixture of isomers) [Compound 17], the IC50 (mTORC1) is reported as 0.1 to 0.8 nM, the Kd [1] is reported as 300 to 800 nM and the “mTORC2 % inhibition at 1 uM” value (mTORC2) is reported as “A (A ≤20% inhibition at 1 micro Molar (uM))”. It also gave a Kd (FKBP12) of less than 0.3 nM, a Kd [2] greater than 800 nM and a Kd (FKBP51) of 10 to 100 nM.

In the case of CO[C@@H]1C[C@H](C[C@@H](C)[C@@H]2CC(=O)[C@H](C)/C=C(\C)[C@@H](O)[C@@H](OC)C(=O)[C@H](C)C[C@H](C)/C=C/C=C/C=C(\C)[C@@H](OCC3CCC3)C[C@@H]3CC[C@@H](C)[C@@](O)(O3)C(=O)C(=O)N3CCCC[C@H]3C(=O)O2)CC[C@H]1OCCCS(C)(=O)=O [Compound 62], the IC50 (mTORC1) is reported as greater than 0.8 nM, the Kd [1] is reported as less than 300 nM and the “mTORC2 % inhibition at 1 uM” value (mTORC2) is reported as “C (C≥40% and less than 60% inhibition at 1 uM)”. It also gave a Kd (FKBP12) greater than 1 nM, a Kd [2] greater than 800 nM and a Kd (FKBP51) greater than 100 nM.
